Consider 1 compound from doi:10.1101/2024.12.09.627564, “Cannabinoid inhibition of mechanosensitive K^+ channels” (bioRxiv, 2024).

One data set addresses T1, TRAAKG165R (Homo sapiens, UniProt Q9NYG8, G139R).
T1 construct: The transcribed messages encode H. sapiens TRAAK amino acids 1–393; expressed in transfected cells; host or cells: Xenopus laevis oocytes, cRNA injection
T1 sequence (Q9NYG8 1-393 G139R): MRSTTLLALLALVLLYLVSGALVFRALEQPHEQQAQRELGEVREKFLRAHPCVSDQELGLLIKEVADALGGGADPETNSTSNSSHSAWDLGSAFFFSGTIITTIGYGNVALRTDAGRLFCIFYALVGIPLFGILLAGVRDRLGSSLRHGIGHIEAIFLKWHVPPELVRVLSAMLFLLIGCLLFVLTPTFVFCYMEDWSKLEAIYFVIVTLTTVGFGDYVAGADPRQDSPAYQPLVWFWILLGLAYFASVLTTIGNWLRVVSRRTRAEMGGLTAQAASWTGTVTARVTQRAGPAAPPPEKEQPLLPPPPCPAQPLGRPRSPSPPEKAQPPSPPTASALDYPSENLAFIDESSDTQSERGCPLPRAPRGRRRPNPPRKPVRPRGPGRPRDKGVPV
Description: Excised patch recording of TRAAK mutant G165R. The data set is classed as biochemical. An excerpt: For patch clamp recording from Xenopus oocytes, genes encoding full-length Homo sapiens TRAAK (UniProt Q9NYG8–2), TREK-1 (UniProt O95069), and TREK-2 (UniProt P57789) were codon optimized for eukaryotic expression, synthesized (Genewiz), and cloned into a modified pGEMHE vector using Xho1 and EcoR1 restriction sites. The transcribed messages encode H. sapiens TRAAK amino acids 1–393, TREK-1 amino acids 1–426, or TREK-2 amino acids 1–538 with an additional three amino acids (SNS) at the C terminus. TRAAK mutants were introduced by polymerase chain reaction (PCR). Linearized DNA was transcribed in vitro using T7 polymerase. […] Currents were recorded at 25 °C from inside-out patches excised from oocytes 1 to 5 d after RNA injection. […]
(§1) Patches were evaluated with voltage-step protocols to confirm TRAAK expression and minimal non-specific leak based on reversal potential. Currents were recorded using an Axopatch 200B amplifier (Molecular Devices) at a bandwidth of 1 kHz and digitized with an Digidata 1550B (Molecular Devices) at 100–500 kHz using pClamp10.7 software. […] In an effort to minimize variability associated with differences in resting membrane tension, we targeted patches with low basal curvature and low resting channel activity and ensured measured pressure difference across the patch was as close to zero as possible at rest to prevent mechanical activation of channels. […]

A further data set concerns the target T2, Homo sapiens TREK-2 (Homo sapiens, UniProt P57789).
T2 construct: TREK-2 amino acids 1–538; expressed in transfected cells; host or cells: Xenopus laevis oocytes, cRNA injection
T2 sequence (P57789 1-538): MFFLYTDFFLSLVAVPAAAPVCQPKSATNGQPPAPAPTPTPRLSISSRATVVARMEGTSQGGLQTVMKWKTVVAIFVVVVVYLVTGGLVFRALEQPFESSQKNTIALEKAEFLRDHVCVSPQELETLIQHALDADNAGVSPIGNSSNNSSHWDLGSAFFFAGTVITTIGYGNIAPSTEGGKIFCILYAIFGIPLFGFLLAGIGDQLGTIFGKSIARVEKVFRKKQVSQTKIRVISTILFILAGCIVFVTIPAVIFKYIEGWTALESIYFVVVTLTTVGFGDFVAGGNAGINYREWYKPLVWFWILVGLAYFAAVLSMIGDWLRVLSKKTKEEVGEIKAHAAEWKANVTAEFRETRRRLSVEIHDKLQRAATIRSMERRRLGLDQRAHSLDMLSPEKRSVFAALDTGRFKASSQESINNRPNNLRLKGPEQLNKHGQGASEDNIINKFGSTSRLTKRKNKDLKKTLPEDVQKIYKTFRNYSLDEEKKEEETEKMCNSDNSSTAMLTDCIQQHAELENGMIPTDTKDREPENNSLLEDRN
Description: Excised inside-out patch recording of TREK-2 from Xenopus oocytes. It is filed as biochemical.
Source text: For patch clamp recording from Xenopus oocytes, genes encoding full-length Homo sapiens TRAAK (UniProt Q9NYG8–2), TREK-1 (UniProt O95069), and TREK-2 (UniProt P57789) were codon optimized for eukaryotic expression, synthesized (Genewiz), and cloned into a modified pGEMHE vector using Xho1 and EcoR1 restriction sites. The transcribed messages encode H. sapiens TRAAK amino acids 1–393, TREK-1 amino acids 1–426, or TREK-2 amino acids 1–538 with an additional three amino acids (SNS) at the C terminus. TRAAK mutants were introduced by polymerase chain reaction (PCR). Linearized DNA was transcribed in vitro using T7 polymerase. Complementary RNA (0.1 to 10 ng for TRAAK, TREK-1, TREK-2, and mutants) in 50 nL H2O was injected into Xenopus laevis oocytes extracted from anesthetized frogs. Currents were recorded at 25 °C from inside-out patches excised from oocytes 1 to 5 d after RNA injection. […]
as §1, with “channels. Data were analyzed using Clampfit 10.7, Excel, and Graphpad Prism software.” for “channels.”
To avoid cannabinoid absorption to plastic, cannabinoid solutions were made in glass vials and diluted by weight, perfusion was performed using glass tubing pulled from borosilicate glass Pasteur pipettes (Fisherbrand, Cat# 13–678-20C), and recordings were performed in glass chambers. Channel activity was continuously recorded during perfusion steps. […]

For data set [1] the following is noted: as measured in plasma or estimated in brain tissue; cited from earlier work.
For the next data set, the system named is TRPA1. Also noted: method as in PMID 30697147, PMID 31566564. To be noted: activation; cited from earlier work.

`C=C(C)[C@@H]1CCC(C)=C[C@H]1c1c(O)cc(CCCCC)cc1O` [CBD, Cannabidiol]: the figures for the IC50 at TRAAKG165R and on Homo sapiens TREK-2 were 356 ± 18 nM and 1300 nM, respectively. Further, the Hill-coefficient at Homo sapiens TREK-2 (TREK-2 dose-response) worked out at 3.8. The “fold less sensitive than TRAAK” value on Homo sapiens TREK-2 (TREK-2 vs TRAAK) was ~ 10 fold. The “concentration in treated patients” value in data set [1] is 50 to 100 nM. In the data set with TRPA1, the EC50 was 110 nM.
